Experiments:
[1] = biological target: Signal transducer and activator of transcription 3 (Homo sapiens, UniProt P40763); test: Inhibition of IL-6-induced STAT3 phosphorylation at Tyr705 in human HeLa cells by Western blot analysis; assay type: cell-based
HeLa = test: Inhibition of cell growth in human HeLa cells by MTT assay; assay type: functional, cell-based
MDA-MB-231 = test: Inhibition of cell growth in human MDA-MB-231 cells by MTT assay; assay type: functional, cell-based
U-266 = test: Antiproliferative activity against human U-266 cells; assay type: functional, cell-based

Chain of Signal transducer and activator of transcription 3 (P40763 whole entry): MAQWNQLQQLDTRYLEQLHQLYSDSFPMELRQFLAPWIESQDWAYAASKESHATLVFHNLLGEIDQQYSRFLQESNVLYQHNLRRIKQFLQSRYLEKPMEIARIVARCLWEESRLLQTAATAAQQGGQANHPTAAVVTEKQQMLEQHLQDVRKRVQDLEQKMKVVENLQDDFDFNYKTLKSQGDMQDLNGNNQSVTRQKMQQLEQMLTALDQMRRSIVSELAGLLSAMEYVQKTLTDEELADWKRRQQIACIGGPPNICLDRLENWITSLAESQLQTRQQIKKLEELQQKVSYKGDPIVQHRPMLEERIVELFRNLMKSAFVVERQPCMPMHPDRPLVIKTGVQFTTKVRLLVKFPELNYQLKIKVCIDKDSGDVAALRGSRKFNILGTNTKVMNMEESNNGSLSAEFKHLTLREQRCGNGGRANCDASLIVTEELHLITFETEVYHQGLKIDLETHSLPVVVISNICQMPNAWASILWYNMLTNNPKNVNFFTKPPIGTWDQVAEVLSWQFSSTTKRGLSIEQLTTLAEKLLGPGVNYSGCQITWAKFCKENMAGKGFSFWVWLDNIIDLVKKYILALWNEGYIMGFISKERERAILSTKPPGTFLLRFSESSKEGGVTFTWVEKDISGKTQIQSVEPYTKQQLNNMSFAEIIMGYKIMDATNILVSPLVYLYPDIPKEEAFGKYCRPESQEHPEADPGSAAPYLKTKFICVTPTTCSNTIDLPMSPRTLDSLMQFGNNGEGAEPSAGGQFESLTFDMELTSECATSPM

`C=C1C2=C(C(=O)N1OC)[C@@H](O)[C@](C)(O)[C@@H](CCCCC)O2` gave an IC50 [1] of 6.6 µM, an IC50 (HeLa) of 4.2 µM and an IC50 (MDA-MB-231) of 8.9 µM.

For `C=C1C2=C(C(=O)N1OC)[C@@H](O)[C@@](C)(O)[C@H](CCCCC)O2`, the IC50 [1] was 20.2 µM, the IC50 (HeLa) was 8.4 µM and the IC50 (MDA-MB-231) was 24.2 µM.

In the case of `O=[N+]([O-])c1ccc2c(c1)S(=O)(=O)C=C2`, the IC50 [1] is reported as < 6.3 µM, the IC50 (HeLa) is reported as 0.57 µM and the IC50 (MDA-MB-231) is reported as 3.4 µM.

With `CCCCC[C@@H]1OC2=C(C(=O)N(OC)C2=O)[C@H](O)[C@@]1(C)O` the IC50 [1] was > 100 µM, the IC50 (HeLa) was > 50 µM and the IC50 (MDA-MB-231) was > 50 µM.

For `C=C1C2=C(C(=O)N1OC)[C@H](O)[C@@](C)(O)[C@H](CCCCC)O2`, the IC50 (U-266) was 6.7 µM, the IC50 [1] was 13.5 µM and the inhibition ([1]; dose <= 100.0 µM) was “Dose-dependent-effect”. It also gave an IC50 (HeLa) of 8.8 µM and an IC50 (MDA-MB-231) of 29.7 µM.

Work on `C=C1C2=C(C(=O)N1OC)[C@@H](O)[C@@](C)(O)[C@@H](CCCCC)O2` yielded an IC50 [1] of 9.2 µM, an IC50 (HeLa) of 4.2 µM and an IC50 (MDA-MB-231) of 16.2 µM.

`C=C1C2=C(C(=O)N1OC)[C@H](O)[C@@](C)(O)[C@@H](CCCCC)O2` was tested, and the IC50 [1] was 7.3 µM, the IC50 (HeLa) was 6.1 µM and the IC50 (MDA-MB-231) was 19.8 µM.
